In patent US11344607B2, “Treatment of disease with relaxin” (BV Biomed Ltd, priority 2015, dated 2022):
Several values for one entry are separate records, joined by “and”; a condition that tells them apart may be missing. Identical values can stand only once. Entries after “also recorded” stand apart in the source; their conditions may differ. No end group written: not given here.

What was measured:
IL-6 = assay: RT-PCR of spinal cord, IL-6 expression; type: in vivo, mice; conditions: for change of spinal cord IL-6 expression vs placebo: EAE mice, in words
Description: (§1) At 7-8 weeks of age, mice were immunized with […] emulsion (Hooke Laboratories #EK-2110 provided pre-formulated). Mice received pertussis toxin (Hooke Laboratory, Cat #EK-2110 provided lyophilized) reconstituted in phosphate buffered saline (PBS) at the time of immunization (day 0; 75 ng) and on day 2 (200 ng). Animals were scored daily for disease severity: 0=normal, 1=tail paralysis, 2=tail paralysis and strong hind limb weakness, 3=complete hind limb paralysis, 4=hind limb and forelimb paralysis, 5=found dead.
(§2) At the onset of EAE (the first day with a score of 1 or greater), subcutaneous alzet pumps (DURECT Corporation, Cupertino, Calif.) were inserted and the animals were randomly assigned to receive either porcine relaxin (SKY BioHealth, Inc., Eden Prairie, Minn., […]) or placebo treatment (1 μ/Hr PBS), either recombinant porcine relaxin (pRLN, n=8) or placebo (PBS, n=8) at a rate of 0.110/hr. Relaxin (SKY BioHealth, Inc., Eden Prairie, Minn/) was administered at a concentration of 0.25 mg/ml for the remainder of the study. This delivered a standard dose of 0.66 μg/day of pRLN, which is equivalent to the identified effective dose of 30 μg/KG body weight/day (Hasse et al, 2014). Statistical analysis was done using the t-test and P values <0.05 were considered to be statistically significant.
(§3) Spinal cords and brains were collected for RT-PCR and histopathology. Total RNA was isolated from spinal cord and brain tissue using the RNeasy mini-kit protocol (Qiagen; Valencia, Calif.) and converted to cDNA using oligo(dT), random hexamers, and Superscript RT II (Invitrogen; Grand Island, N.Y.). […]
(§4) β-actin. Alternatively RT-PCR for the chemokine receptors (CCR); CCR2, CCR5, CCR7, the interleukins (IL-6 and IL-17) were analyzed using quantitect primers (table 2) and SYBR green based RT-PCR kits (Qiagen, Valencia, Calif.). For histology, spinal cords sections were stained using luxol fast blue-periodic acid shiff for semi-quantitative analysis of infiltration and demyelination.

CD68 = CD68 immunohistochemistry of spinal cord (macrophages); type: in vivo; conditions: EAE mice, vs untreated; listed as RLN
Description: (§5) For alternative histology, spinal cords were formalin fixed and paraffin embedded (FFPE) as described by Canene-Adams [Canene-Adams, 2013]. Briefly, Spinal cords were rinsed in PBS to remove blood and fixed in 10% formalin for 48 hours at room temperature. Tissues were then transferred to 70% ethanol (ETOH) for 1 hour, 95% ETOH (95% ETOH/5% methanol) for 1 hour, then incubated in four absolute ETOH baths first for 1 hour, then 2 for 1½ hours, followed by a fourth for 2 hours. Tissues were then cleared with two xylene baths for 1 hour each. Tissues were then incubated in two paraffin baths at 58° C. for 1 hour each. Tissues were then removed and placed in cassettes.
(§6) The FFPE tissues were sectioned into […] slices on a microtome. Slices were transferred to glass slides and warmed to 65° C. for 20 minutes to bond the tissue to the glass.
(§7) Sections were stained with Kiernan's eriochrome cyanin for myelin [Kiernan J A, 1999], cluster of differentiation 68 (CD68) for macrophages [Holness and Simmons, 1993], neurofilaments [Alberts, B. 2002] and glial fibrillary acidic protein (GFAP) [Jacque C M, et al, 1978].
(§8) Standard immunohistochemistry [Ramos-vara and Miller, 2014] was used to identify the presence of CD68, neurofilaments and GFAP in the FFPE tissues. Essentially the appropriate antibody directed against the antigen of choice was incubated with the tissue and allowed to bind. […]

spinal cord lesions = assay: Spinal cord histology, infiltration and demyelination (lesion load); type: in vivo; conditions: EAE mice, compared to control animals, data not shown
Description: as §4

neurofilaments = assay: Neurofilament immunohistochemistry of spinal cord; type: in vivo; conditions: EAE mice, vs untreated; listed as RLN
Description: as §5, §6, §7, §8

MIR2 = assay: Spinal cord expression of MIR2; type: in vivo; conditions: EAE mice, in words (FIG. 3)
Description: as §1, §2
(§9) Spinal cords and brains were collected for RT-PCR and histopathology. […]

[1] = limited clinical trials (Smith 2006); cited from earlier work
IL-17 = assay: RT-PCR of spinal cord, IL-17 expression; type: in vivo, mice; conditions: for change of spinal cord IL-17 expression vs placebo: EAE mice, in words
Description: as §1, §2, §3, §4

IL-10 = assay: RT-PCR of spinal cord, IL-10 expression; type: in vivo; conditions: EAE mice, in words (FIG. 3)
Description: as §1, §2, §9

EAE mouse model = assay: EAE disease severity, daily clinical score; type: in vivo, mice
Description: Female C57BL/6 mice were obtained and housed at Biomedical Research Models (Worcester, Mass.)
as §1, §2

CCR2 = assay: RT-PCR of spinal cord, CCR2 expression; type: in vivo, mice
Description: as §1
(§10) At the onset of EAE (the first day with a score of 1 or greater), subcutaneous alzet pumps (DURECT Corporation, Cupertino, Calif.) were inserted and the animals were randomly assigned to receive either porcine relaxin (SKY BioHealth, Inc., Eden Prairie, Minn., 66.0 μg/day) or placebo treatment (1 μ/Hr PBS), either recombinant porcine relaxin (pRLN, n=8) or placebo (PBS, n=8) at a rate of 0.110/hr. […]
as §4

myelin = assay: Kiernan's eriochrome cyanin stain of spinal cord for myelin; type: in vivo; conditions: EAE mice, vs untreated (loss of myelin)
Description: as §5, §6, §7
Kiernan's stain for myelin was done as described. First tissues were placed in a solution containing eriochrome cyanine R, ferric chloride and sulphuric acid in water for 20 minutes. Rinsed briefly under tap water and differentiated with aqueous ferric chloride (5.6%). […]

[2] = tested on: inflammation and Wallerian degeneration of the spinal cord; assay: H&E staining of spinal cord; type: in vivo; conditions: EAE mice, vs untreated
Description: as §5, §6
Staining with Hematoxylin and eosin (H&E) stain was also carried out according to standard protocols.

GFAP = GFAP immunohistochemistry of spinal cord (gliosis); type: in vivo; conditions: EAE mice, untreated stained positive (extensive gliosis)
Description: as §5, §6, §7, §8

CCR7 = assay: RT-PCR of spinal cord, CCR7 expression; type: in vivo, mice
Description: as §1, §10, §4

CCR5 = assay: RT-PCR of spinal cord, CCR5 expression; type: in vivo, mice
Description: as §1, §10, §4

Q: Which “change of spinal cord IL-6 expression vs placebo” value (IL-6) does the source give for “relaxin: porcine relaxin (SKY BioHealth, Inc.), recombinant porcine relaxin (pRLN), infused by subcutaneous alzet pump (Relaxin B chain QSTNDFIKACGRELVRLWVEICGSVSWGRTAL; Relaxin A chain RMTLSEKCCQVGCIRKDIARLC; ends and bridges not checked; cysteine pairing not given here; UniProt P01348 25-56; P01348 161-182, looked up)” here?
A: significantly decreased

Q: What about the “change of spinal cord IL-6 expression vs placebo” value (IL-6; listed as RLX) of the same substance?
A: decreased

Q: And the “spinal cord expression of IL-6” value (IL-6; normalized to β-actin, EAE mice n=8, further studies (FIG. 4), p<0.05 vs placebo 0.0009)?
A: 0.0004 relative units

Q: What about the “macrophage infiltration of the spinal cord (CD68)” value (CD68) of the same substance?
A: greater infiltration of macrophages in the untreated samples than in those treated with RLN; also recorded: decreased macrophage infiltration

Q: What about the “lesion load and size in the spinal cord” value (spinal cord lesions) of the same substance?
A: reduced lesion load and size

Q: And the “loss of neurofilament in the spinal cord” value (neurofilaments)?
A: relatively greater loss of neurofilaments compared to mice receiving RLN therapy; also recorded: greater loss of neurofilament in the spinal cords of untreated mice

Q: What about the “change of spinal cord MIR2 expression” value (MIR2) of the same substance?
A: increased

Q: And the “change of spinal cord MIR2 expression” value (MIR2; listed as RLX)?
A: increased the expression of the MIR2

Q: What about the severe side effects [1] of the same substance?
A: no severe side effects

Q: And the “change of spinal cord IL-17 expression vs placebo” value (IL-17)?
A: significantly decreased

Q: What about the “change of spinal cord IL-17 expression vs placebo” value (IL-17; listed as RLX) of the same substance?
A: decreased

Q: And the “spinal cord expression of IL-17” value (IL-17; normalized to β-actin, EAE mice n=8, further studies (FIG. 4), p<0.05 vs placebo 0.00026)?
A: 0.000078 relative units

Q: What about the “change of spinal cord IL-10 expression” value (IL-10) of the same substance?
A: decreased

Q: And the “time to marked improvement in clinical score” value (EAE mouse model; EAE mice, after commencing continuous infusion (FIG. 1a))?
A: ≤ 3 days

Q: What about the “clinical score at the end of treatment” value (EAE mouse model; EAE mice, n=8, scale 0-5, subcutaneous alzet pump from EAE onset, score 2.0 at start, placebo 1.5, listed as RLN) of the same substance?
A: 0.5 and > 0.5

Q: What about the “change in clinical score compared to PBS control” value (EAE mouse model; EAE model animals, FIG. 1a) of the same substance?
A: improvement in clinical score

Q: What about the “change of spinal cord CCR2 expression vs PBS/placebo” value (CCR2; EAE mice, in words) of the same substance?
A: decreased; also recorded: significant reductions

Q: What about the “spinal cord expression of CCR2” value (CCR2; normalized to β-actin, EAE mice n=8, further studies (FIG. 2b), p<0.05 vs placebo) of the same substance?
A: 0.044 relative units

Q: What about the “myelin in spinal cord sections” value (myelin) of the same substance?
A: decreases myelination and increases remyelination

Q: And the “myelin in spinal cord sections” value (myelin; listed as RLN)?
A: normal appearing myelin

Q: And the “inflammation and Wallerian degeneration of the spinal cord” value [2]?
A: decrease in inflammation and Wallerian degeneration

Q: What about the “GFAP staining of spinal cord / gliosis” value (GFAP) of the same substance?
A: complete lack of gliosis

Q: What about the “GFAP staining of spinal cord / gliosis” value (GFAP; listed as RLN) of the same substance?
A: negative for GFAP; also recorded: did not stain positively for GFAP

Q: And the “change of spinal cord CCR7 expression vs PBS/placebo” value (CCR7; EAE mice, in words)?
A: decreased; also recorded: significant reductions

Q: What about the “spinal cord expression of CCR7” value (CCR7; normalized to β-actin, EAE mice n=8, further studies (FIG. 2b), p<0.05 vs placebo 0.014) of the same substance?
A: 0.003 relative units

Q: What about the “change of spinal cord CCR5 expression vs PBS/placebo” value (CCR5; EAE mice, in words) of the same substance?
A: decreased; also recorded: significant reductions

Q: And the “spinal cord expression of CCR5” value (CCR5; normalized to β-actin, EAE mice n=8, further studies (FIG. 2b), not significant vs placebo 0.0046)?
A: 0.0035 relative units
